Columns and labels:
Format in all cases: cell-based
UACC-257 = experiment: In vitro cytotoxicity, Development Therapeutics Program; conditions: UACC-257, melanoma; 1.0×10^−5 M
Text: (§1) From the in vitro experiments of the Development Therapeutics Program of the Cancer Research Institute, the United States, it was known that the synthetic heterocyclic anthraquinone derivatives of the present invention have different inhibition levels to the different cancer cell lines under the concentration of 1.0×10^−5 M. Please refer to Table 2, which is the result of in vitro cytotoxicity of 2,7-disubstituted anthraquinone derivatives of the present invention.

MDA-MB-435 = experiment: as above; conditions: MDA-MB-435, breast cancer; 1.0×10^−5 M
Text: as §1

COLO 205 = experiment: as above; conditions: COLO 205, colon cancer; 1.0×10^−5 M
Text: as §1

NCl-H226 = experiment: as above; conditions: NCl-H226, non-small cell lung cancer; 1.0×10^−5 M
Text: as §1

NCI/ADR-RES = experiment: as above; conditions: breast cancer, 1.0×10^−5 M
Text: as §1

U251 = experiment: as above; conditions: U251, CNS cancer; 1.0×10^−5 M
Text: as §1

HOP-92 = experiment: as above; conditions: HOP-92, non-small cell lung cancer; 1.0×10^−5 M
Text: as §1

K-562 = experiment: as above; conditions: K-562, leukemia; 1.0×10^−5 M
Text: as §1

M14 = experiment: as above; conditions: M14, melanoma; 1.0×10^−5 M
Text: as §1

UO-31 = experiment: as above; conditions: UO-31, renal cancer; 1.0×10^−5 M
Text: as §1

OVCAR-3 = experiment: as above; conditions: OVCAR-3, ovarian cancer; 1.0×10^−5 M
Text: as §1

HOP-62 = experiment: as above; conditions: HOP-62, non-small cell lung cancer; 1.0×10^−5 M
Text: as §1

T-47D = experiment: as above; conditions: breast cancer, 1.0×10^−5 M
Text: as §1

SK-OV-3 = experiment: as above; conditions: SK-OV-3, ovarian cancer; 1.0×10^−5 M
Text: as §1

786-0 = experiment: as above; conditions: 786-0, renal cancer; 1.0×10^−5 M
Text: as §1

ACHN = experiment: as above; conditions: renal cancer, 1.0×10^−5 M
Text: as §1

NCl-H322M = experiment: as above; conditions: non-small cell lung cancer, 1.0×10^−5 M
Text: as §1

RPMI-8226 = experiment: as above; conditions: RPMI-8226, leukemia; 1.0×10^−5 M
Text: as §1

OVCAR-8 = experiment: as above; conditions: OVCAR-8, ovarian cancer; 1.0×10^−5 M
Text: as §1

TK-10 = experiment: as above; conditions: TK-10, renal cancer; 1.0×10^−5 M
Text: as §1

H1299 = experiment: MTT assay in H1299 cells; conditions: for cytotoxicity to H1299 cancer cells compared with mitoxantrone: MTT assay
Outline: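 H1299 cells, 2×10^3 per well, treated with drug 48 h. MTT (5 mg/ml stock) added for 4 h at 37° C, then SDS/DMF lysis overnight; absorbance at 570 nm gives viability, used alongside SEAP reporter readout to correct for cell number.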

Row | SMILES | Cellular growth rate (%) (UACC-257) | Cellular growth rate (%) (MDA-MB-435) | Cellular growth rate (%) (COLO 205) | Cellular growth rate (%) (NCl-H226) | Cellular growth rate (%) (NCI/ADR-RES) | Cellular growth rate (%) (U251) | Cellular growth rate (%) (HOP-92) | Cellular growth rate (%) (K-562) | Cellular growth rate (%) (M14) | Cellular growth rate (%) (UO-31) | Cellular growth rate (%) (OVCAR-3) | Cellular growth rate (%) (HOP-62) | Cellular growth rate (%) (T-47D) | Cellular growth rate (%) (SK-OV-3) | Cellular growth rate (%) (786-0) | Cellular growth rate (%) (ACHN) | Cellular growth rate (%) (NCl-H322M) | Cellular growth rate (%) (RPMI-8226) | Cellular growth rate (%) (OVCAR-8) | Cellular growth rate (%) (TK-10) | also measured
1 | O=C(CCN1CCCC1)Nc1ccc2c(c1)C(=O)c1cc(NC(=O)CCN3CCCC3)ccc1C2=O [Compound 18, 2,7-Bis[3-(pyrrolidino)propionamido]anthraquinone] | −17.88% | 68.84% | −29.04% | 41.10% | 80.59% | 18.16% | 7.04% | 6.40% | 53.88% | 5.27% | 36.88% | 18.79% | 58.98% | 27.14% | 40.51% | 29.65% | 45.79% | 47.90% | 19.58% | 31.22% | 
2 | CCNCC(=O)Nc1ccc2c(c1)C(=O)c1cc(NC(=O)CNCC)ccc1C2=O [Compound 10, 2,7-Bis[2-(ethylamino)acetamido]anthraquinone] |  |  |  |  |  |  |  |  |  |  |  |  |  |  |  |  |  |  |  |  | cytotoxicity to H1299 cancer cells compared with mitoxantrone (H1299): better than
3 | O=C(CN1CCCCC1)Nc1ccc2c(c1)C(=O)c1cc(NC(=O)CN3CCCCC3)ccc1C2=O [Compound 7, 2,7-Bis[2-(piperidino)acetamido]anthraquinone] |  |  |  |  |  |  |  |  |  |  |  |  |  |  |  |  |  |  |  |  | cytotoxicity to H1299 cancer cells compared with mitoxantrone (H1299): better than
4 | CC(=O)Nc1ccc2c(c1)C(=O)c1cc(NC(C)=O)ccc1C2=O [Compound 26, 2,7-Bis(acetamido)anthraquinone] | 26.97% | 109.48% | 119.85% | 104.51% | 114.26% | 95.14% | 101.26% | 98.54% | 105.11% | 96.42% | 111.06% | 110.60% | 96.17% | 101.12% | 97.72% | 96.93% | 97.50% | 121.47% | 99.85% | 118.38% | 
5 | O=C1c2ccc(NC(=O)C3CC3)cc2C(=O)c2cc(NC(=O)C3CC3)ccc21 [Compound 32, 2,7-Bis(cyclopropanecarbonamido)anthraquinone] | 107.63% | 97.35% | 91.92% | 100.60% | 90.83% | 72.62% | 86.18% | 91.60% | 98.89% | 95.55% | 103.35% | 91.64% | 79.75% | 93.16% | 94.92% | 86.70% | 105.77% | 88.38% | 94.34% | 136.20% | cytotoxicity to H1299 cancer cells compared with mitoxantrone (H1299): better than
6 | CN(C)CC(=O)Nc1ccc2c(c1)C(=O)c1cc(NC(=O)CN(C)C)ccc1C2=O [Compound 8, 2,7-Bis[2-(dimethylamino)acetamido]anthraquinone] | −1.84% | 68.36% | −73.57% | 89.14% | 47.84% | 16.26% | 56.14% | 34.91% | 75.04% | −82.55% | 43.63% | 28.97% | 24.62% | 70.26% | 68.60% | 66.43% | 32.42% | 34.97% | 32.31% | 73.47% | 
7 | CCN(CC)CCC(=O)Nc1ccc2c(c1)C(=O)c1cc(NC(=O)CCN(CC)CC)ccc1C2=O [Compound 16, 2,7-Bis[3-(diethylamino)propionamido]anthraquinone] | −14.46% | 71.07% | −49.69% | 49.89% | 59.52% | 21.65% | 9.70% | 8.10% | 62.79% | −31.53% | 10.39% | 11.65% | 68.62% | 44.02% | 24.72% | 11.09% | 44.75% | −29.02% | 4.30% | 17.16% | 
8 | O=C(Cc1ccccc1)Nc1ccc2c(c1)C(=O)c1cc(NC(=O)Cc3ccccc3)ccc1C2=O [Compound 30, 2,7-Bis(phenylacetamido)anthraquinone] |  |  |  |  |  |  |  |  |  |  |  |  |  |  |  |  |  |  |  |  | MTT assay (cellular cytotoxicity) (H1299; low concentration (1 μM)): 107±7%

From patent US20090253709A1 (NATIONAL DEFENSE MEDICAL CENTER, priority 2008, published 2009)
